Assay results taken from patent US7381724B2, “Optically active 5H-pyrrolo[3,4-b]pyrazine derivative, its preparation and pharmaceutical compositions containing same” (Sepracor Inc., priority 1991, dated 2008).

Columns and labels:
[1] = acute oral toxicity (LD50) in mice; details: mouse, in vivo, po
[2] = test system: animals; test: pharmacological properties in animals; assay type: in vivo
[3] = test system: pentetrazol-induced convulsions; test: test of antagonist activity with respect to pentetrazol-induced convulsions; assay type: in vivo; details: relative to racemic zopiclone; technique of Everett and Richards
[4] = test system: mice; test: acute oral toxicity (LD50) in mice; details: for toxicity compared with the racemate: relative to racemic zopiclone
[5] = test system: central benzodiazepine receptor sites; test: test of affinity for central benzodiazepine receptor sites; assay type: binding; details: relative to racemic zopiclone; technique of Blanchard and Julou
[6] = test system: writhing reflex; test: writhing reflex test in mice; assay type: in vivo; details: relative to racemic zopiclone, technique of Zbinden and Randall

Compound | LD50 [1] [mg/kg] | properties displayed in animals [2] | potency of action, antagonist activity with respect to pentetrazol-induced convulsions [3] | toxicity (LD50) ([4]; administered orally to mice) [mg/kg] | toxicity compared with the racemate [4] | potency of action, affinity for central benzodiazepine receptor sites [5] | potency of action, writhing reflex test [6]
CN1CCN(C(=O)OC2c3nccnc3C(=O)N2c2ccc(Cl)cn2)CC1 (racemic) [zopiclone, 6-(5-chloro-2-pyridyl)-5-[(4-methyl-1-piperazinyl)carbonyloxy]-7-oxo-6,7-dihydro-5H-pyrrolo[3,4-b]pyrazine, reference compound] | ~850 |  |  |  |  |  | 
CN1CCN(C(=O)O[C@H]2c3nccnc3C(=O)N2c2ccc(Cl)cn2)CC1 (single isomer, unassigned) [dextrorotatory isomer] |  | hypnotic, sedative, anxiolytic, muscle-relaxant and anticonvulsant properties | approximately twice as active | ~1500 | lower toxicity than that of the racemate | approximately twice as active | approximately twice as active
CN1CCN(C(=O)O[C@@H]2c3nccnc3C(=O)N2c2ccc(Cl)cn2)CC1 (single isomer, unassigned) [laevorotatory isomer, reference compound] |  |  | almost inactive |  | more toxic than the racemate | almost inactive | almost inactive
